# Source: US20250205253A1, “PHARMACEUTICAL COMPOSITION FOR PREVENTING OR TREATING BENIGN PROSTATIC HYPERPLASIA” (University-Industry Cooperation Group of Kyung Hee …, priority 2023, published 2025)
# Columns and labels:
# [1] = test system: DHT-stimulated RWPE-1 cells; test: ATPase assay in DHT-stimulated RWPE-1 cells; format: cell-based, human; conditions: DHT-stimulated RWPE-1, MitoQ 25, 50, 100 μM, 24 h; FIG. 2E
# [2] = test system: DHT-stimulated RWPE-1 cells; test: Immunofluorescence (8OHdG, NLRP3, AR) in DHT-stimulated RWPE-1 cells; format: cell-based, human; conditions: DHT-stimulated RWPE-1, MitoQ 25, 50, 100 μM
# Method: (§1) The RWPE-1 cells were cultured in a keratinocyte serum-free medium supplemented with 0.05 mg/mL bovine pituitary extract, 5 ng/mL human recombinant epidermal growth factor, and antibiotic-antimycotic solution (Gibco®, Big Cabin, OK, USA). The cells were cultured in a humidified environment at 37° C. and 5% CO2. The cells were cultured in a serum-free medium to block the effects of autocrine androgens.
# Thereafter, the cells were washed and incubated with fluorescein isothiocyanate (FITC)-conjugated anti-mouse or tetramethylrhodamine (TRITC)-conjugated anti-rabbit secondary antibodies. Nuclei were stained with 4′,6-diamidino-2-phenylindole (Life Technologies). Images were captured using an optical microscope (ECLIPSE Ni-U, Nikon, Tokyo, Japan).
# [3] = test system: testosterone-induced BPH rat model; test: Immunofluorescence (8-OHdG, NLRP3) of rat prostate tissue; format: in vivo
# Method: After deparaffinization and rehydration, rat prostate tissue slides were incubated with anti-mouse 8-OHdG antibodies or anti-rabbit NLRP3 antibodies and visualized with FITC-conjugated anti-mouse and TRITC-conjugated anti-rabbit secondary antibodies, respectively.
# The slides were mounted and detected using a Nikon X-Cite-Series 120 Q microscope (Nikon, Japan). The exposure parameters were the same for each sample.
# (§2) Six-week-old male Sprague-Dawley rats (n=40; 200 +20 g) were purchased from Daehan Biolink Co. (Daejeon, Korea). The animals were randomly allocated, four rats in each cage, and housed in accordance with the guidelines for the care and use of laboratory animals adopted and promulgated by Sangji University according to the requirements established by the National Institutes of Health. All experimental protocols were approved by the Institutional Animal Care and Use Committee (IACUC) of Sangji University before the initiation of the study (IACUC Animal Approval Protocol #2018-18). The rats were acclimatized to laboratory conditions for one week before initiating the experiment.
# The rats in the control group were incised and sutured without removing the testicles following anesthesia using zoletil 50 (intraperitoneal injection, 10 mg/kg). […] Twenty-four hours after the final administration, all rats were euthanized following anesthesia with zoletil 50 (i.p., 20 mg/kg). […]
# [4] = test system: testosterone-induced BPH rat model; test: Testosterone-induced BPH rat model, prostate size and weight; format: in vivo
# Description: as §2
# (§3) The rats in the control group were incised and sutured without removing the testicles following anesthesia using zoletil 50 (intraperitoneal injection, 10 mg/kg). […] Twenty-four hours after the final administration, all rats were euthanized following anesthesia with zoletil 50 (i.p., 20 mg/kg). Blood samples were drawn through cardiac puncture, and serum was obtained via centrifugation and stored at −80° C.
# [5] = test system: testosterone-induced BPH rat model; test: ROS assay on cells from rat prostate tissue; format: in vivo; conditions: dose-dependent, MitoQ 5 and 25 mg/kg/day; FIG. 5C
# Description: as §2, §3
# After the male rats were euthanized, the prostate tissues were excised and treated with type I collagenase (Thermo Fisher Scientific, MA, USA) to isolate the cells. […] The cells were incubated for 30 minutes at 37° C. and detected using a Muse® Cell Analyzer (Merck, Darmstadt, Germany).
# [6] = test system: testosterone-induced BPH rat model; test: qRT-PCR mRNA level in prostate of rats with BPH; format: in vivo
# Method: (§4) Total RNA was isolated using Easy-Blue® reagent (iNtRON Biotechnology, Inc., Gyeonggi, Korea) and transcribed into complementary DNA (cDNA) according to the manufacturer's instructions. Oligonucleotide primers (Table 1) were purchased from Bioneer Corporation (Daejeon, Korea). qRT-PCR was performed according to the known method.
# as §2, §3
# [7] = test system: DHT-stimulated RWPE-1 cells; test: qRT-PCR mRNA expression in DHT-stimulated RWPE-1 cells; format: cell-based, human; conditions: for mRNA level of HO-1 and GPX-1: FIG. 1E
# Method: as §1, §4
# [8] = test system: testosterone-induced BPH rat model; test: Histological analysis (H&E) of prostate tissue of rats with BPH; format: in vivo; conditions: MitoQ 5, 25 mg/kg/day; Saw 100 mg/kg/day p.o.; FIGS. 4C, 4D
# Description: as §2, §3
# Prostate tissues from each group were fixed in 4% formalin and embedded in paraffin. The tissues were cut into 4-μm sections. […] The thickness of the epithelium in the prostate tissues was measured using the Leica Application Suite software (LAS ver. 3.3.0, Leica Microsystems, Inc., Buffalo Grove, IL, USA).
# [9] = test system: DHT-stimulated RWPE-1 cells; test: Western blot analysis in DHT-stimulated RWPE-1 cells; format: cell-based, human; conditions: DHT-stimulated RWPE-1, MitoQ 25, 50, 100 μM
# Method: as §1
# (§5) Total protein was extracted from the RWPE-1 cells and rat prostate tissues, and a western blot analysis was performed. An antibody against AR (Cat. No. sc-7305) was purchased from Santa Cruz Biotechnology, Inc. (TX, USA). Boster Biological Technology (CA, USA) provided an antibody against a prostate-specific antigen (PSA; Cat. No. PB9259). An antibody against caspase-3 (Cat. No. #9661) was purchased from Cell Signaling Technology. Novus Biologicals (CO, USA) provided an antibody against NLRP3 (Cat. No. NBP2-12446). An antibody against IL-1β (Cat. No. 2105) was purchased from Abcam (Cambridge, UK).
# [10] = test system: DHT-stimulated RWPE-1 cells; test: ATP determination assay in DHT-stimulated RWPE-1 cells; format: cell-based, human; conditions: DHT-stimulated RWPE-1, MitoQ 25, 50, 100 μM, dose-dependent; FIG. 2F
# [11] = test system: testosterone-induced BPH rat model; test: Western blot of prostate tissue of rats with BPH; format: in vivo
# Method: as §5, §2, §3
# [12] = test system: DHT-stimulated RWPE-1 cells; test: Mitochondrial activity and mtROS levels (MitoTracker, MitoSOX); format: cell-based, human; conditions: DHT-stimulated RWPE-1, 100 μM MitoQ, 24 h; FIG. 1F
substance,measurement,setting,value
mitoquinone,ATPase-specific activity,[1],significantly suppressed
same,overexpression of 8OHdG (oxidative stress indicator),[2]; FIG. 1D,notably suppressed
same,NLRP3 protein expression,[2]; FIG. 2A,significantly suppressed
same,AR overexpression (protein),[2]; FIG. 3A,clearly suppressed
same,BPH-upregulated expression of NLRP3,"[3]; FIGS. 6A, 6B",reversed
same,intensity of 8-OHdG-positive staining,"[3]; vs BPH groups, FIGS. 5A, 5B",significantly lower
same,prostate weight (PW/BW ratio),"[4]; MitoQ 5, 25 mg/kg/day, Saw 100 mg/kg/day p.o., vs BPH, FIG. 4B",significant reduction
same,prostate size,"[4]; MitoQ 5 and 25 mg/kg p.o., four weeks, FIG. 4A",reduced
same,intracellular ROS generation in prostate cells,[5],significantly suppressed
same,"mRNA level of HO-1, SOD1, and PGC1α",[6]; FIG. 5D,upregulated
same,increased mRNA level of PYCARD and IL-1β,[6]; FIG. 6C,repressed
same,"mRNA level of 5α-reductase 2, AR, and SRC-1","[6]; FIGS. 7B, 7C",downregulated
same,mRNA level of HO-1 and GPX-1,"[7]; DHT-stimulated RWPE-1, 100 μM MitoQ",significantly increased
same,"mRNA expression of NLRP3, PYCARD, and IL-1β","[7]; DHT-stimulated RWPE-1, MitoQ 25, 50, 100 μM, FIG. 2B",significantly reduced
same,"mRNA level of AR, 5α-reductase 2, and PSA","[7]; DHT-stimulated RWPE-1, MitoQ 25, 50, 100 μM, FIG. 3B",notably inhibited
same,mRNA level of HO-1 and GPX-1,"[7]; DHT-stimulated RWPE-1, MitoQ treatment",normalized
same,thickened epithelium of prostate tissue,[8],significantly reduced
same,SOD2 and catalase protein expression,[9]; FIG. 1G,significantly increased
same,PSA protein expression,[9]; FIG. 3C,considerably suppressed
same,ATP level,[10],significantly reduced
same,"overexpression of NLRP3, pro-caspase 1, cleaved caspase 1, and IL-1β proteins","[11]; FIGS. 6D, 6E",suppressed
same,expression of catalase and SOD2 (protein),"[11]; vs BPH groups, FIG. 5E",significantly higher
same,protein expression of PSA,"[11]; vs BPH groups, FIG. 7D",decreased
same,excessive production of mtROS,[12],suppressed
